Experimental data published in patent US5300433A, “Methods for the inactivation of viruses in viral-contaminated pharmaceutical compositions” (Rhone-Poulenc Rorer Pharmaceuticals Inc., priority 1991, dated 1994).
Like-named read-outs stand apart in the source and are kept apart here.

Assays:
HIV [1] = tested on: HIV; design: species or system Human Immunodeficiency Virus
From the text: The Factor IX solution obtained is further contacted with HIV virus to obtain a final titer of 8-9 log10 of virus. […]. The solution is then dialyzed to remove the chemical disinfectant and then filtered through a membrane with an effective porosity equivalent to 100 KD molecular weight cut off.

HIV [2] = conditions: initial titer 9 log10
Description: A virus stock concentrate was prepared by infecting (CEM) cells at a multiplicity of infection of approximately 1. The cultures were established in 490 cm^2 Corning roller bottles containing approximately 450 ml of RPMI 1640 medium sufficient as is supplemented with 10% fetal bovine serum, penicillin, streptomycin, and 0.002 mg/ml polybrene. […] The total volume of the cultures was 1800 ml. […] The cultures were filtered through a 1.2 uM cellulose acetate filter. Virus was pelleted from the filtrate by centrifugation at 61,000×g for 4 hours at 4° C. The pelleted virus was resuspended with PBS (phosphate buffered saline solution).
Samples A, B and C were allowed to stand for 1 hour at 4° C. and sample D was allowed to stand for 1 hour at 25° C. Each sample was then centrifuged at 105,000×g for 90 minutes. The pellets were resuspended in 1 ml PBS and assayed for HIV by direct observation of the cytopathic effects of the virus on CEM cells. The assay method used in this example inherently rounds off titer to the nearest 0.5 log increment.

[3] = tested on: Factor IX - deficient plasma; experiment: Factor IX activity by degree of correction in APTT time of Factor IX-deficient plasma; assay type: biochemical, human
Description: A purified Factor IX was obtained from PROTHAR® by chromatography on a monoclonal antibody affinity matrix specific to Factor IX. It contained approximately 0.065 milligrams of protein and 8 units of Factor IX activity per milliliter of solution. The purified preparation was ultrafiltered using an Amicon XM300 membrane and pressure of 5 p.s.i. The ultrafiltration proceeded very rapidly (about 2.5 ml/min). The filtrate was subsequently re-filtered through an Amicon XM100 membrane. The Factor IX activity in the final ultrafiltrate was 67%. Losses were not the result of Factor IX inactivation since specific activity was unaltered.
The product covered by this registered trademark of Armour Pharmaceutical is a stable lyophilized concentrate of human Factors II, VII, IX and X. It is prepared from pooled human plasma. Upon reconstitution it is a concentrated protein solution containing approximately 18 milligrams of total protein and 33 units of Factor IX activity per milliliter. The specific activity of Factor IX in the product ranges from 0 8-2.0 units per milligram of total protein.
In the first run, PROTHAR® was diluted 1:1 with 0.05M Tris-HCL, pH8.0. The resultant solution was ultrafiltered through an Amicon XM100 membrane (molecular weight cut-off of 100 K Daltons) using a pressure of 15 p.s.i. The ultrafiltration proceeded very slowly (about 0.25 ml/min), and the flow rate slowed as the protein inside the stirred cell became more concentrated. Only about 1% of the Factor IX activity found in the starting material appeared in the ultrafiltrate. […] Factor IX activity, in this and all other instances, is assayed by determining the degree of correction in APTT time of Factor IX - deficient plasma. J. H. Lenahan, Phillips and Phillips, Clin. Chem., Vol. 12, page 269 (1966).
Subsequent experiments were performed using an Amicon XM300 membrane (molecular weight cut-off of 300 K Daltons), pressures of 5 p.s.i., and reconstituted PROTHAR® dilutions of 1:6 and 1:10. Only about 17-19% of the Factor IX activity was found in the ultrafiltrate.

| Compound | titer of HIV infectivity (HIV [1]) | TOTAL LOG10 ID50 (found) (HIV [2]; Sample A: final NaSCN 1.5, 1 hour, 4° C.) [LOG10 ID50] | TOTAL LOG10 ID50 (found) (HIV [2]; Sample B: final NaSCN 2.0, 1 hour, 4° C.) [LOG10 ID50] | TOTAL LOG10 ID50 (found) (HIV [2]; Sample C: final NaSCN 3.0, no buffer, 1 hour, 4° C.) [LOG10 ID50] | TOTAL LOG10 ID50 (found) (HIV [2]; Sample D: final NaSCN 2.0, 1 hour, 25° C.) [LOG10 ID50] | F.IX recovered ([3]; Example 5, 100 KD molecular weight cut-off filtration) | Factor IX activity recovered ([3]; Example 6, dialysis and 100 KD cut-off filtration) | specific activity after ultrafiltration ([3]; affinity-purified Factor IX, XM300 then XM100 membrane) | Factor IX activity in the final ultrafiltrate ([3]; affinity-purified Factor IX, XM300 then XM100 membrane, 5 p.s.i.) [%] | active Factor IX content, of the initial value ([3]; after 0.1% tri(n-butyl)phosphate and 1% Tween 80) [%] | specific activity ([3]; pre-purified by chromatography on a monoclonal antibody affinity matrix) | Factor IX activity per milliliter of solution ([3]; purified Factor IX, approximately 0.065 milligrams of protein per milliliter) [units per milliliter] | HIV titer after dialysis and filtration (HIV [1]; 100 KD cut-off membrane, after NaSCN treatment) |
| --- | --- | --- | --- | --- | --- | --- | --- | --- | --- | --- | --- | --- | --- |
| N#CS [NaSCN, sodium thiocyanate] | undetectable levels | 1.0 | 1.0 | 1.0 | 1.0 | – | – | – | – | – | – | – | – |
| Factor IX: purified Factor IX obtained from PROTHAR by chromatography on a monoclonal antibody affinity matrix specific to Factor IX | – | – | – | – | – | 80-100% | 80-100% | unaltered | 67 | > 80 | ≤ 190 units/mg of protein | ~8 | further reduced |
